One assay concerns the target T1, Human M3 receptor (Homo sapiens, UniProt P20309).
T1 construct: purchased Perkin Elmer
Put plainly: biochemical. Format: binding. The following applies: read-out: M3 Range.

The target of another assay is T2, Human β2 adrenoceptor (Homo sapiens, UniProt P07550).
T2 construct: purchased Perkin Elmer
Put plainly: β2 adrenoceptor radioligand binding assay. As to the method: β2 Adrenoceptor Radioligand Binding Assay
Human β2 adrenoceptor membranes (7.5 ug/well) from Perkin Elmer were incubated with 0.3 nM 125-I Cyanopindolol with or without test compounds, or a saturating concentration of s-propranolol (2 μM) for the determination of non-specific binding. The assay was carried out in 96-well polypropylene plates in a volume of 200 ul. The assay buffer used was 25 mM HEPES, 0.5% BSA (w/v), 1 mM EDTA, 0.02% ascorbic acid (v/v), (pH 7.4). The final assay concentration of DMSO was 0.5% (v/v). The plates were sealed and incubated for 1 h at room temperature on an orbital shaker (slow speed). Membranes were harvested onto 96-well unifilter GF/C filter plates pre-treated with 0.5% polyethyleneimine (v/v), using a filter manifold, washed six times with 200 ul of wash buffer containing 10 mM HEPES and 500 mM NaCl. The plates were dried before addition of 50 μl of microscint-0, sealed then read in a Trilux Microbeta scintillation counter. IC50 values are determined from competition curves using a non-linear curve fitting program. Ki values were calculated from IC50 values by the Cheng and Prusoff equation.

Bounds are passed on as bounds.

T2 sequence (P07550 whole entry): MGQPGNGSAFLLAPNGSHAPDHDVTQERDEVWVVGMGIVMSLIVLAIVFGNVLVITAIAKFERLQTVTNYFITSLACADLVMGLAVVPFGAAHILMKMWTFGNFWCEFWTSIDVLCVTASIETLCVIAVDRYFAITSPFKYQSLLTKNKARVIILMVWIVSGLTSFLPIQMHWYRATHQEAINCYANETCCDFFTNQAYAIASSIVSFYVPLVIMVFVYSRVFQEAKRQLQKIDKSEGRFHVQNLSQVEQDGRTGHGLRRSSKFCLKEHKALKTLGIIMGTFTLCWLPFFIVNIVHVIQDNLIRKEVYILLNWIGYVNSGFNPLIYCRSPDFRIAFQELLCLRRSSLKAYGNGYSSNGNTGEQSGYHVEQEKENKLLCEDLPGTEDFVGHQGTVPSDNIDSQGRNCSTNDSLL
T1 sequence (P20309 whole entry): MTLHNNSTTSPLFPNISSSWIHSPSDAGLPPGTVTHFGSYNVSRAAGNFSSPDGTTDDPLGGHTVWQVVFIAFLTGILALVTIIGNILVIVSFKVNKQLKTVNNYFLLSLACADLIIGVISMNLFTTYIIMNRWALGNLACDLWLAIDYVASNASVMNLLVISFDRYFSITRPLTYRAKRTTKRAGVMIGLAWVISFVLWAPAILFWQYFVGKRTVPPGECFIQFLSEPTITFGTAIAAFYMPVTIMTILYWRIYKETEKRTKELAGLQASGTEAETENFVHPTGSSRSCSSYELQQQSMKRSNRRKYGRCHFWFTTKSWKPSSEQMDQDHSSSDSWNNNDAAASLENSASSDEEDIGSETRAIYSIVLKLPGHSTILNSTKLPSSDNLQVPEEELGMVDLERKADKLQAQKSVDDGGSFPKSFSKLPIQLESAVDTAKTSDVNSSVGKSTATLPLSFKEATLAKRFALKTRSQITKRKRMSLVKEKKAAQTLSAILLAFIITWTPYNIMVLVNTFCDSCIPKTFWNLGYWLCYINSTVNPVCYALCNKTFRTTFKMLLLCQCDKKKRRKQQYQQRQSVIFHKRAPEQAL

Take `COc1ccc(CN2CCC(COC(=O)[C@](O)(c3ccccc3)c3cccc(-c4ccc(CNC(=O)c5ccc(CNC[C@H](O)c6ccc(O)c7[nH]c(=O)ccc67)cc5)s4)c3)CC2)cc1` [Compound 2A, (1-(4-Methoxybenzyl)piperidin-4-yl)methyl (S)-2-hydroxy-2-(3-(5-((4-((((R)-2-hydroxy-2-(8-hydroxy-2-oxo-1,2-dihydroquinolin-5-yl)ethyl)amino)-methyl)benzamido)methyl)thiophen-2-yl)phenyl)-2-phenylacetate]: the results for the IC50 at Human M3 receptor and on Human β2 adrenoceptor were 0.3 to 3 nM and less than 0.3 nM, respectively.

Consider `CN1CCC(COC(=O)[C@](O)(c2ccccc2)c2cccc(-c3ccc(CNC(=O)c4ccc(CNC[C@H](O)c5ccc(O)c6[nH]c(=O)ccc56)cc4)s3)c2)CC1` [Compound 2B, (1-Methylpiperidin-4-yl)methyl (S)-2-hydroxy-2-(3-(5-((4-((((R)-2-hydroxy-2-(8-hydroxy-2-oxo-1,2-dihydroquinolin-5-yl)ethyl)amino)methyl)-benzamido)methyl)thiophen-2-yl)phenyl)-2-phenylacetate], for which the IC50 is 0.3 to 3 nM at Human M3 receptor and less than 0.3 nM at Human β2 adrenoceptor.

For the compound `O=C(NCc1ccc(-c2cccc([C@](O)(C(=O)OC[C@@H]3[C@H]4CN(Cc5ccccc5)C[C@@H]34)c3ccccc3)c2)s1)c1ccc(CNC[C@H](O)c2ccc(O)c3[nH]c(=O)ccc23)cc1` [Compound 2D, ((1R,5S,6r)-3-Benzyl-3-azabicyclo[3.1.0]hexan-6-yl)methyl (S)-2-hydroxy-2-(3-(5-((4-((((R)-2-hydroxy-2-(8-hydroxy-2-oxo-1,2-dihydroquinolin-5-yl)ethyl)amino)methyl)benzamido)methyl)thiophen-2-yl)phenyl)-2-phenylacetate], the IC50 on Human M3 receptor and on Human β2 adrenoceptor was 0.3 to 3 nM in each case.

As for `COc1cccc(CN2CCC(COC(=O)[C@](O)(c3ccccc3)c3cccc(-c4ccc(CNC(=O)c5ccc(CNC[C@H](O)c6ccc(O)c7[nH]c(=O)ccc67)cc5)s4)c3)CC2)c1` [Compound 2E, (1-(3-Methoxybenzyl)piperidin-4-yl)methyl (S)-2-hydroxy-2-(3-(5-((4-((((R)-2-hydroxy-2-(8-hydroxy-2-oxo-1,2-dihydroquinolin-5-yl)ethyl)amino)-methyl)benzamido)methyl)thiophen-2-yl)phenyl)-2-phenylacetate], the results for the IC50 on Human M3 receptor and at Human β2 adrenoceptor were more than 3 nM and 0.3 to 3 nM, respectively.

As to `C[C@@H](OC(=O)[C@](O)(c1ccccc1)c1cccc(-c2ccc(CNC(=O)c3ccc(CNC[C@H](O)c4ccc(O)c5[nH]c(=O)ccc45)cc3)s2)c1)C1CCN(Cc2ccccc2)CC1` [Compound 2G, (R)-1-(1-Benzylpiperidin-4-yl)ethyl (S)-2-hydroxy-2-(3-(5-((4-((((R)-2-hydroxy-2-(8-hydroxy-2-oxo-1,2-dihydroquinolin-5-yl)ethyl)amino)-methyl)benzamido)methyl)thiophen-2-yl)phenyl)-2-phenylacetate], the IC50 on Human M3 receptor is 0.3 to 3 nM; at Human β2 adrenoceptor, less than 0.3 nM.

Regarding `O=C(NCc1ccc(-c2cccc([C@](O)(C(=O)OC3CCC4(CC3)CCN(Cc3ccccc3)CC4)c3ccccc3)c2)s1)c1ccc(CNC[C@H](O)c2ccc(O)c3[nH]c(=O)ccc23)cc1` [Compound 2H, 3-Benzyl-3-azaspiro[5.5]undecan-9-yl (S)-2-hydroxy-2-(3-(5-((4-((((R)-2-hydroxy-2-(8-hydroxy-2-oxo-1,2-dihydroquinolin-5-yl)ethyl)amino)-methyl)benzamido)methyl)thiophen-2-yl)phenyl)-2-phenylacetate], the IC50 on Human M3 receptor was more than 3 nM; on Human β2 adrenoceptor, less than 0.3 nM.

Regarding `O=C(c1ccc(CCNC[C@H](O)c2ccc(O)c3[nH]c(=O)ccc23)cc1)N1CC=C(c2cccc([C@](O)(C(=O)OCC3CCN(Cc4ccccc4)CC3)c3ccccc3)c2)CC1` [Compound 3, (1-Benzylpiperidin-4-yl)methyl (S)-2-hydroxy-2-(3-(1-(4-(2-(((R)-2-hydroxy-2-(8-hydroxy-2-oxo-1,2-dihydroquinolin-5-yl)ethyl)amino)ethyl)benzoyl)-1,2,3,6-tetrahydropyridin-4-yl)phenyl)-2-phenylacetate], the IC50 at Human M3 receptor and at Human β2 adrenoceptor was less than 0.3 nM each time.

For `O=C(NCc1ccc(-c2cccc([C@](O)(C(=O)OCC3CCN(Cc4ccccc4)CC3)c3ccccc3)c2)o1)c1ccc(CNC[C@H](O)c2ccc(O)c3[nH]c(=O)ccc23)cc1` [Compound 3A, (1-Benzylpiperidin-4-yl)methyl (S)-2-hydroxy-2-(3-(5-((4-((((R)-2-hydroxy-2-(8-hydroxy-2-oxo-1,2-dihydroquinolin-5-yl)ethyl)amino)methyl)-benzamido)methyl)furan-2-yl)phenyl)-2-phenylacetate], the IC50 on Human M3 receptor and at Human β2 adrenoceptor was 0.3 to 3 nM in each case.

With `O=C(c1ccc(CNC[C@H](O)c2ccc(O)c3[nH]c(=O)ccc23)cc1)N1CC=C(c2cccc([C@](O)(C(=O)OCC3CCN(Cc4ccccc4)CC3)c3ccccc3)c2)CC1` [Compound 3B, (1-Benzylpiperidin-4-yl)methyl (S)-2-hydroxy-2-(3-(1-(4-((((R)-2-hydroxy-2-(8-hydroxy-2-oxo-1,2-dihydroquinolin-5-yl)ethyl)amino)methyl)benzoyl)-1,2,3,6-tetrahydropyridin-4-yl)phenyl)-2-phenylacetate], the IC50 at Human M3 receptor was 0.3 to 3 nM; at Human β2 adrenoceptor, less than 0.3 nM.

Take `COc1cc(C(=O)N2CC=C(c3cccc([C@](O)(C(=O)OCC4CCN(Cc5ccccc5)CC4)c4ccccc4)c3)CC2)ccc1CNC[C@H](O)c1ccc(O)c2[nH]c(=O)ccc12` [Compound 3C, (1-Benzylpiperidin-4-yl)methyl (S)-2-hydroxy-2-(3-(1-(4-((((R)-2-hydroxy-2-(8-hydroxy-2-oxo-1,2-dihydroquinolin-5-yl)ethyl)amino)methyl)-3-methoxybenzoyl)-1,2,3,6-tetrahydropyridin-4-yl)phenyl)-2-phenylacetate]: the IC50 on Human M3 receptor and on Human β2 adrenoceptor was less than 0.3 nM each time.

For `COc1c(CNC[C@H](O)c2ccc(O)c3[nH]c(=O)ccc23)ccc(C(=O)N2CC=C(c3cccc([C@](O)(C(=O)OCC4CCN(Cc5ccccc5)CC4)c4ccccc4)c3)CC2)c1F` [Compound 3D, (1-Benzylpiperidin-4-yl)methyl (S)-2-(3-(1-(2-fluoro-4-((((R)-2-hydroxy-2-(8-hydroxy-2-oxo-1,2-dihydroquinolin-5-yl)ethyl)amino)methyl)-3-methoxybenzoyl)-1,2,3,6-tetrahydropyridin-4-yl)phenyl)-2-hydroxy-2-phenylacetate], the IC50 on Human M3 receptor and on Human β2 adrenoceptor was 0.3 to 3 nM each time.

For `COc1cc(CNC[C@H](O)c2ccc(O)c3[nH]c(=O)ccc23)ccc1C(=O)N1CC=C(c2cccc([C@](O)(C(=O)OCC3CCN(Cc4ccccc4)CC3)c3ccccc3)c2)CC1` [Compound 3E, (1-Benzylpiperidin-4-yl)methyl (S)-2-hydroxy-2-(3-(1-(4-((((R)-2-hydroxy-2-(8-hydroxy-2-oxo-1,2-dihydroquinolin-5-yl)ethyl)amino)methyl)-2-methoxybenzoyl)-1,2,3,6-tetrahydropyridin-4-yl)phenyl)-2-phenylacetate], the IC50 at Human M3 receptor and at Human β2 adrenoceptor was less than 0.3 nM each time.

Take `O=C(c1ccc(CCNC[C@H](O)c2ccc(O)c3[nH]c(=O)ccc23)cc1)N1CC=C(c2cccc([C@](O)(C(=O)OCC3CCN(Cc4ccccc4)CC3)c3ccccc3)c2)C1` [Compound 3F, (1-Benzylpiperidin-4-yl)methyl (S)-2-hydroxy-2-(3-(1-(4-(2-(((R)-2-hydroxy-2-(8-hydroxy-2-oxo-1,2-dihydroquinolin-5-yl)ethyl)amino)ethyl)benzoyl)-2,5-dihydro-1H-pyrrol-3-yl)phenyl)-2-phenylacetate]: the IC50 at Human M3 receptor was 0.3 to 3 nM; on Human β2 adrenoceptor, less than 0.3 nM.

For `O=C(c1ccc(CNC[C@H](O)c2ccc(O)c3[nH]c(=O)ccc23)cc1)N1CC=C(c2cccc([C@](O)(C(=O)OCC3CCN(Cc4ccccc4)CC3)c3ccccc3)c2)C1` [Compound 3G, (1-Benzylpiperidin-4-yl)methyl (S)-2-hydroxy-2-(3-(1-(4-((((R)-2-hydroxy-2-(8-hydroxy-2-oxo-1,2-dihydroquinolin-5-yl)ethyl)amino)methyl)benzoyl)-2,5-dihydro-1H-pyrrol-3-yl)phenyl)-2-phenylacetate], the IC50 on Human M3 receptor is 0.3 to 3 nM; at Human β2 adrenoceptor, less than 0.3 nM.

`COc1cc(C(=O)N2CCC=C(c3cccc([C@](O)(C(=O)OCC4CCN(Cc5ccccc5)CC4)c4ccccc4)c3)C2)ccc1CNC[C@H](O)c1ccc(O)c2[nH]c(=O)ccc12` [Compound 3H, (1-Benzylpiperidin-4-yl)methyl (S)-2-hydroxy-2-(3-(1-(4-((((R)-2-hydroxy-2-(8-hydroxy-2-oxo-1,2-dihydroquinolin-5-yl)ethyl)amino)methyl)-3-methoxybenzoyl)-1,2,5,6-tetrahydropyridin-3-yl)phenyl)-2-phenylacetate]: the IC50 was 0.3 to 3 nM on Human M3 receptor and less than 0.3 nM at Human β2 adrenoceptor.

For the compound `O=C(c1ccc(CNC[C@H](O)c2ccc(O)c3[nH]c(=O)ccc23)cc1)N1CCC=C(c2cccc([C@](O)(C(=O)OCC3CCN(Cc4ccccc4)CC3)c3ccccc3)c2)C1` [Compound 3I, (1-Benzylpiperidin-4-yl)methyl (S)-2-hydroxy-2-(3-(1-(4-((((R)-2-hydroxy-2-(8-hydroxy-2-oxo-1,2-dihydroquinolin-5-yl)ethyl)amino)methyl)benzoyl)-1,2,5,6-tetrahydropyridin-3-yl)phenyl)-2-phenylacetate], the IC50 at Human M3 receptor and at Human β2 adrenoceptor was 0.3 to 3 nM each time.

Source of the values: patent US10196386B2, “Compounds having muscarinic receptor antagonist and beta2 adrenergic receptor agonist activity” (priority 2016, dated 2019).
